Here are results for eight compounds from patent publication US20260317324A1, “BIFUNCTIONAL COMPOUNDS FOR DEGRADING BRAF VIA UBIQUITIN PROTEOSOME PATHWAY” (Nurix Therapeutics, Inc., priority 2023, published 2026).

One may read the DC50 as the concentration at which degradation of the target reaches its halfway point. Lower therefore signals degradation at low concentration. The Dmax is the greatest extent of degradation seen. High values mean a fuller loss of target, low ones a partial loss of target.

Assay type in all cases: cell-based
The target in assay [1] is T1, BRAF G469A (Homo sapiens, UniProt P15056, G469A).
T1 construct: Horizon Discovery (HCT-116 BRAF−/− cells); host or cells: HCT-116 BRAF−/− cells, clone 34, lentiviral transduction
T1 sequence (P15056 whole entry G469A): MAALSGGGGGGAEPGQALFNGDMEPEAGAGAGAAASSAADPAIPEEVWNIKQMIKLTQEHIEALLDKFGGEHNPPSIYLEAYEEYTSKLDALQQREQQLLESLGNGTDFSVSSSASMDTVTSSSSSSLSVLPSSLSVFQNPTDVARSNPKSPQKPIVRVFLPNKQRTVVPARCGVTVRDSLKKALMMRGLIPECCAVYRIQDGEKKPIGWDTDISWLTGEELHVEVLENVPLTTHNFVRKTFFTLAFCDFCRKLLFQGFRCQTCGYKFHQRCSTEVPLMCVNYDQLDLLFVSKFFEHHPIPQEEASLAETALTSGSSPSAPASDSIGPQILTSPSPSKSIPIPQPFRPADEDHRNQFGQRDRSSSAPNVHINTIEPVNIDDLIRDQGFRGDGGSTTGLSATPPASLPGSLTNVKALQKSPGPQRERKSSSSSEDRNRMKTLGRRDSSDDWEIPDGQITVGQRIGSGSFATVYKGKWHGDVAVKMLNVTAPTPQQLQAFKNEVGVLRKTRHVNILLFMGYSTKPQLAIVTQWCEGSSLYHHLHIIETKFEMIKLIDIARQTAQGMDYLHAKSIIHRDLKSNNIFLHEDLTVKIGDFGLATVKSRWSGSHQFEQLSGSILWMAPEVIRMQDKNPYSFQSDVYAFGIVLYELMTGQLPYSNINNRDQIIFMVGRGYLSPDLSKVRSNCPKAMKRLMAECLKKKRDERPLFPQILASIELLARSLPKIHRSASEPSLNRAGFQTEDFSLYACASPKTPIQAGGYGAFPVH
Nature of the assay: BRAF HiBiT degradation assay, C-terminal HiBiT-tagged BRAF G469A overexpressed in HCT-116 BRAF−/− cells (clone 34), Nano-Glo HiBiT Lytic assay. The gist of the method:
(§1)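 Cells 3,000/well, 24 h at 37 °C; cpds 1 μM–0.01 nM, 11-pt half-log, duplicate, 0.2% DMSO. Readout: HiBiT lytic luminescence, 10 min at RT. Normalized to DMSO-treated tagged cells, with DMSO-treated wild-type HCT-116 as background. DC50 = fitted concentration at Y=50; Obs. Dmax = % degraded at maximal effect.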

Assay [2] deals with T2, BRAF D594G (Homo sapiens, UniProt P15056, D594G).
T2 construct: Horizon Discovery (HCT-116 BRAF−/− cells); host or cells: HCT-116 BRAF−/− cells, clone 63, lentiviral transduction
T2 sequence (P15056 whole entry D594G): as the sequence (P15056 whole entry G469A) above, with A469G, D594G counted along it
Nature of the assay: BRAF HiBiT degradation assay, C-terminal HiBiT-tagged BRAF D594G overexpressed in HCT-116 BRAF−/− cells (clone 63), Nano-Glo HiBiT Lytic assay. The method, boiled down:
as §1
A general note: With HiBiT, luminescence reflects the tagged protein that the partner subunit can reach.

Assay [3] concerns the target T3, BRAF G466V (Homo sapiens, UniProt P15056, G466V).
T3 construct: Horizon Discovery (HCT-116 BRAF−/− cells); host or cells: HCT-116 BRAF−/− cells, clone 8, lentiviral transduction
Briefly: BRAF HiBiT degradation assay, C-terminal HiBiT-tagged BRAF G466V overexpressed in HCT-116 BRAF−/− cells (clone 8), Nano-Glo HiBiT Lytic assay. The gist of the method:
as §1

Assay [4] concerns the target T4, BRAF V600E (Homo sapiens, UniProt P15056, V600E).
T4 construct: endogenous C-terminal HiBiT fusion tag on BRAF V600E allele; endogenous in cells; host or cells: A375 clone 1F10 (CRISPR-Cas9 knock-in of the HiBiT tag; parental A375 from ATCC)
Nature of the assay: BRAF HiBiT degradation assay, C-terminal HiBiT-tagged BRAF V600E A375 cells (clone 1F10), Nano-Glo HiBiT Lytic assay. The following applies: for Dmax: A-375. The method, boiled down:
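Luminescence read-out: Nano-Glo HiBiT lytic reagent with LgBiT, 10 min at room temperature. Signal normalised to DMSO-treated tagged cells, with wildtype A375 as background. Cells are endogenously tagged BRAF V600E A375 clone 1F10. Compounds were tested from 1 μM to 0.01 nM; Dmax is observed % degraded at maximal effect.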

The mark [5] stands for this setting: BRAF G469A (Class 2), HCT-116 BRAF−/− cells, DC50 at 50% degradation.
[6] abbreviates: BRAF G469A (Class 2), HCT-116 BRAF−/− cells, observed Dmax relative to DMSO control.
The mark [7] stands for this setting: BRAF D594G (Class 3), HCT-116 BRAF−/− cells, DC50 at 50% degradation.
Where [8] appears, read: BRAF D594G (Class 3), HCT-116 BRAF−/− cells, observed Dmax relative to DMSO control.
Where [9] appears, read: BRAF G466V (Class 3), HCT-116 BRAF−/− cells, DC50 at 50% degradation.
Where [10] appears, read: BRAF G466V (Class 3), HCT-116 BRAF−/− cells, observed Dmax relative to DMSO control.
Setting [11] is: A375 (BRAF V600E, Class 1), DC50 at 50% degradation.
Where [12] appears, read: A375 (BRAF V600E, Class 1), observed Dmax, % protein degraded relative to DMSO control.
Where [13] appears, read: Class 2, BRAF G469A, DC50 at 50%: fitted conc. at Y=50.
Setting [14] is: HCT-116, Class 2, BRAF G469A, percentage protein degraded at maximal compound effect relative to DMSO.
Where [15] appears, read: BRAF D594G, DC50 at 50%: fitted conc. at Y=50.
Setting [16] is: HCT-116, BRAF D594G, percentage protein degraded at maximal compound effect relative to DMSO.
The mark [17] stands for this setting: BRAF G466V, DC50 at 50%: fitted conc. at Y=50.
[18] abbreviates: HCT-116, BRAF G466V, percentage protein degraded at maximal compound effect relative to DMSO.
Setting [19] is: A375 (BRAF V600E), DC50 at 50%: fitted conc. at Y=50.
[20] abbreviates: A375 (BRAF V600E), percentage protein degraded at maximal compound effect relative to DMSO.

T4 sequence (P15056 whole entry V600E, the tested form may be a part): as the sequence (P15056 whole entry G469A) above, with A469G, V600E counted along it
T3 sequence (P15056 whole entry G466V): as the sequence (P15056 whole entry G469A) above, with G466V, A469G counted along it

On to `C[C@@H]1CN(c2ccc(-n3cc(-c4cc(Cl)cc(NS(=O)(=O)N5CCCC5)c4F)c(-c4ccncc4)n3)nc2)CCN1CC1CCN(c2ccc(C3CCC(=O)NC3=O)cn2)CC1` (mixture of isomers) [Compound 323, N-[5-chloro-3-(1-{5-[(3R)-4-[(1-{5-[(3RS)-2,6-dioxopiperidin-3-yl]pyridin-2-yl}piperidin-4-yl)methyl]-3-methylpiperazin-1-yl]pyridin-2-yl}-3-(pyridin-4-yl)-1H-pyrazol-4-yl)-2-fluorophenyl]pyrrolidine-1-sulfonamide], for which the DC50 in assay [1] (setting [5]), in assay [2] (setting [7]), in assay [3] (setting [9]) and in assay [4] (setting [11]) was below 10 nM throughout. Moreover, the maximal degradation (Dmax) in assay [1] (setting [6]), in assay [2] (setting [8]), in assay [3] (setting [10]) and in assay [4] (setting [12]) was above 70% throughout.

With `CCCS(=O)(=O)Nc1cccc(-c2nc(C(C)(C)C)sc2-c2ccnc(Nc3cnn(CC4CCN(C(=O)[C@H]5CC[C@H](Oc6ccc(C7CCC(=O)NC7=O)cc6)CC5)CC4)c3)n2)c1F` (mixture of isomers) [Compound 118, N-{3-[2-tert-butyl-5-(2-{[1-({1-[(1r,4r)-4-{4-[(3RS)-2,6-dioxopiperidin-3-yl]phenoxy}cyclohexanecarbonyl]piperidin-4-yl}methyl)-1H-pyrazol-4-yl]amino}pyrimidin-4-yl)-1,3-thiazol-4-yl]-2-fluorophenyl}propane-1-sulfonamide], the half-maximal degradation concentration (DC50) in assay [1] (setting [13]) is above 500 nM; in assay [2] (setting [15]) it was above 500 nM; in assay [3] (setting [17]), above 500 nM; in assay [4] (setting [19]), below 10 nM. Moreover, the Dmax in assay [1] (setting [14]) was below 30%; in assay [2] (setting [16]), 30 to 70%; in assay [3] (setting [18]) it was below 30%; in assay [4] (setting [20]) it was above 70%.

Regarding `CCCS(=O)(=O)Nc1cccc(-c2cn(-c3ccc(N4CCN(CC5CCN(c6ccc(C7CCC(=O)NC7=O)c(F)c6)CC5)CC4)cc3)nc2-c2ccncc2)c1F` (racemic) [Compound 19, Rac-N-{3-[1-(4-{4-[(1-{4-[(3R)-2,6-dioxopiperidin-3-yl]-3-fluorophenyl}piperidin-4-yl)methyl]piperazin-1-yl}phenyl)-3-(pyridin-4-yl)-1H-pyrazol-4-yl]-2-fluorophenyl}propane-1-sulfonamide], the DC50 in assay [1] (setting [13]) was above 500 nM; in assay [2] (setting [15]) it was 10 to 50 nM; in assay [3] (setting [17]) it was 10 to 50 nM; in assay [4] (setting [19]) it was 10 to 50 nM. The Dmax was 30 to 70% in assay [1] (setting [14]), 30 to 70% in assay [2] (setting [16]), 30 to 70% in assay [3] (setting [18]) and above 70% in assay [4] (setting [20]).

On to `C[C@@H]1CN(c2ccc(-n3cc(-c4cc(Cl)cc(NS(=O)(=O)N5CC[C@@H](F)C5)c4F)c(-c4ccncc4)n3)cc2)CCN1CC1CCN(c2ccc(N3CCC(=O)NC3=O)cc2)CC1` [Compound 315, (3R)—N-[5-chloro-3-(1-{4-[(3R)-4-({1-[4-(2,4-dioxo-1,3-diazinan-1-yl)phenyl]piperidin-4-yl}methyl)-3-methylpiperazin-1-yl]phenyl}-3-(pyridin-4-yl)-1H-pyrazol-4-yl)-2-fluorophenyl]-3-fluoropyrrolidine-1-sulfonamide], for which the DC50 in assay [1] (setting [5]) was 10 to 50 nM; in assay [2] (setting [7]), below 10 nM; in assay [3] (setting [9]), below 10 nM; in assay [4] (setting [11]), below 10 nM. For the same compound, the Dmax in assay [1] (setting [6]) was 30 to 70%; in assay [2] (setting [8]), 30 to 70%; in assay [3] (setting [10]), above 70%; in assay [4] (setting [12]), above 70%.

`CCCS(=O)(=O)Nc1cccc(-c2nc(C(C)(C)C)sc2-c2ccnc(Nc3cnn(C4CCN(CC[C@H]5CCN(c6ccc(C7CCC(=O)NC7=O)cn6)C5)CC4)c3)n2)c1F` (mixture of isomers) [Compound 77, N-{3-[2-tert-butyl-5-(2-{[1-(1-{2-[(3S)-1-{5-[(3RS)-2,6-dioxopiperidin-3-yl]pyridin-2-yl}pyrrolidin-3-yl]ethyl}piperidin-4-yl)-1H-pyrazol-4-yl]amino}pyrimidin-4-yl)-1,3-thiazol-4-yl]-2-fluorophenyl}propane-1-sulfonamide]: the 50% degradation concentration (DC50) in assay [1] (setting [13]) was above 500 nM; in assay [2] (setting [15]), above 500 nM; in assay [3] (setting [17]), above 500 nM; in assay [4] (setting [19]), 10 to 50 nM. Further, the Dmax in assay [1] (setting [14]) was below 30%; in assay [2] (setting [16]), 30 to 70%; in assay [3] (setting [18]), below 30%; in assay [4] (setting [20]), 30 to 70%.

Take `CCN(C)S(=O)(=O)Nc1cccc(-c2nc(C(C)(C)C)sc2-c2ccnc(Nc3ccc(N4CCN(CC5CCN(c6ccc([C@H]7CCC(=O)NC7=O)cc6)CC5)CC4)cn3)n2)c1F` [Compound 128, (3R)-3-{4-[4-({4-[6-({4-[2-tert-butyl-4-(3-{[ethyl(methyl)sulfamoyl]amino}-2-fluorophenyl)-1,3-thiazol-5-yl]pyrimidin-2-yl}amino)pyridin-3-yl]piperazin-1-yl}methyl)piperidin-1-yl]phenyl}piperidine-2,6-dione]: the half-maximal degradation concentration (DC50) in assay [1] (setting [13]) was above 500 nM; in assay [2] (setting [15]), above 500 nM; in assay [3] (setting [17]), 50 to 500 nM; in assay [4] (setting [19]) it was 50 to 500 nM. Also, the Dmax in assay [1] (setting [14]) was below 30%; in assay [2] (setting [16]), 30 to 70%; in assay [3] (setting [18]), 30 to 70%; in assay [4] (setting [20]) it was above 70%.

Take `C[C@@H]1CN(c2ccc(-n3cc(-c4cc(Cl)cc(NS(=O)(=O)N5CC[C@@H](F)C5)c4F)c(-c4ccncc4)n3)cc2)CCN1CC1CCN(c2ccc(C3CCC(=O)NC3=O)cn2)CC1` (mixture of isomers) [Compound 318, (3R)—N-[5-chloro-3-(1-{4-[(3R)-4-[(1-{5-[(3RS)-2,6-dioxopiperidin-3-yl]pyridin-2-yl}piperidin-4-yl)methyl]-3-methylpiperazin-1-yl]phenyl}-3-(pyridin-4-yl)-1H-pyrazol-4-yl)-2-fluorophenyl]-3-fluoropyrrolidine-1-sulfonamide]: the DC50 in assay [1] (setting [5]), in assay [2] (setting [7]), in assay [3] (setting [9]) and in assay [4] (setting [11]) was below 10 nM each time. Also, the Dmax in assay [1] (setting [6]), in assay [2] (setting [8]), in assay [3] (setting [10]) and in assay [4] (setting [12]) was above 70% each time.

On to `CCCS(=O)(=O)Nc1cccc(-c2nc(C(C)(C)C)sc2-c2ccnc(Nc3cccc(OC4CCN(C(=O)[C@@H]5CCN(c6ccc(C7CCC(=O)NC7=O)cn6)C5)CC4)c3)n2)c1F` (mixture of isomers) [Compound 94, N-{3-[2-tert-butyl-5-(2-{[3-({1-[(3R)-1-{5-[(3RS)-2,6-dioxopiperidin-3-yl]pyridin-2-yl}pyrrolidine-3-carbonyl]piperidin-4-yl}oxy)phenyl]amino}pyrimidin-4-yl)-1,3-thiazol-4-yl]-2-fluorophenyl}propane-1-sulfonamide], for which the DC50 in assay [1] (setting [13]) was above 500 nM; in assay [2] (setting [15]), below 10 nM; in assay [3] (setting [17]), below 10 nM; in assay [4] (setting [19]) it was below 10 nM. The Dmax in assay [1] (setting [14]) is 30 to 70%; in assay [2] (setting [16]), 30 to 70%; in assay [3] (setting [18]), 30 to 70%; in assay [4] (setting [20]), above 70%.
